The text below walks through data of paper PMC7024391, “Trypanocidal Activity of Flavanone Derivatives” (Molecules, 2020).

The subject of data set [1] is Trypanosoma cruzi (amastigotes and trypomastigotes), Tulahuen strain. Briefly: Anti-Trypanosoma cruzi activity assay (amastigotes and trypomastigotes) in infected L929 cells, beta-galactosidase reporter. It counts as cell-based. The conditions noted are these: Trypanosoma cruzi, 96 h incubation, ± 0.2, read-out: Trypanocide IC50(μM) ± 0.2. How it is done: Flavanone derivatives were evaluated for anti-T. cruzi activity against the intracellular forms of the parasite. Although the use of epimastigotes present in the midgut vector may be utilized for initial screening, we have instead opted for the simultaneous use of trypomastigote and intracellular amastigotes forms that are present during both acute and chronic phases of the disease. This approach is in accordance with the Drugs for Neglected Diseases Initiative guidelines (DNDi). Moreover, it also has the advantage of evaluating bioactive compounds in infected cells while at the same time monitoring their effects on both the relevant forms of the parasite in the same system. Benznidazole was used as a positive control against T. cruzi and cytotoxicity was determined in mammalian L929 cells (Table 1). The bioavailability profile of the flavanones was evaluated by applying the Lipinski rule and data related to the risk of toxicity (mutagenicity, tumorigenicity, irritability, and effects on the reproductive system) carried out through online programs “Molinspiration” and “OSIRIS property explorer” (Table 1). […] Nevertheless, this preliminary result motivated us to investigate other analogs bearing substituents in order to improve potency and selectivity. […] Moreover, the selectivity of 2d was almost 4 times greater than 2a. The importance of methoxy substituents for trypanocidal activity has been noted in other studies. […] These compounds resembled more closely the chemical structure of the trypanocidal natural product (brevifolin carboxylate) that these structures were based on. Some enhancement in the trypanocidal activity of hybrid coumarin-chalcone compounds was also noted when the methoxy groups were introduced into either the 2 or 5 positions of the benzene ring. The inclusion of a pyridine moiety in compound 2e was supported by previous reports describing the anti-T. cruzi activity of 2-pyridyl derivatives and their capacity to inhibit cruzain catalytic activity. […] No improvements in anti-T. cruzi activity were also observed for flavanones substituted at the benzoyl moiety (2g–2o and 2v–2x). […] The physicochemical drug descriptors of the molecular properties for the synthesized compounds were calculated by Molinspiration software (Table 1). The majority of the tested compounds satisfy the Lipinski rule with no violations and therefore displaying potentially good bioavailability. There were no linear correlations observed between molecular hydrophobicity and bioactivity.
The in vitro anti-T. cruzi activity was evaluated on L929 cells (mouse fibroblasts) infected with Tulahuen strain of the parasite expressing the Escherichia coli β-galactosidase as reporter gene. Briefly, for the bioassay, 4000 L929 cells were added to each well of a 96-well microtiter plate. After an overnight incubation, 40,000 trypomastigotes were added to the cells and incubated for 2 h. Then, the medium containing extracellular parasites were replaced with 200 μL of fresh medium and the plate was incubated for an additional 48 h to establish the infection. For IC50 determination, the cells were exposed to each synthesized compound at serial decreasing dilutions and the plate was incubated for 96 h. After this period, 50 μL of 500 μM chlorophenol red beta-D-galactopyranoside (CPRG) in 0.5% Nonidet P40 was added to each well, and the plate was incubated for 16–20 h, after which the absorbance at 570 nm was measured. Controls with uninfected cells, untreated infected cells, infected cells treated with Benznidazole at 3.8 μM (positive control) or DMSO 1% were used. The results were expressed as the percentage of T. cruzi growth inhibition in compound-tested cells as compared to the infected cells and untreated cells. The IC50 values were calculated by linear interpolation. Quadruplicates were run in the same plate, and the experiments were repeated at least once.

Data set [2] is described as follows: In vitro cytotoxic test on uninfected L-929 cells (alamarBlue). The note with it: mouse, uninfected L-929 cells; mammalian L929 cells, 96 h, alamarBlue; ± 2.0; read-out: Cytotoxicity CC50(μM) ± 2.0. It counts as cell-based, mouse. The method, then: (§1) The active compounds were tested in vitro for determination of cellular toxicity against uninfected L-929 cells using the alamarBlue® dye. The cells were exposed to compounds at increasing concentrations starting at IC50 value for T. cruzi. After 96 h of incubation with the tested compounds, the alamarBlue® was added and the absorbance at 570 and 600 nm measured after 4–6 h. The cell viability was expressed as the percentage of difference in the reduction between treated and untreated cells. IC50 values were calculated by linear interpolation, and the selectivity index (SI) was determined based on the ratio of the IC50 value in the host cell divided by the IC50 value of the parasite. Quadruplicates were run in the same plate, and the experiments were repeated at least once.
(The colour change of resazurin is a common sign of viable cells or microbes.)

The subject of another data set is L929 cells. The description is as above. The conditions noted are these: CC50 L929 / IC50 T. cruzi. Type of data set: cell-based, mouse. The method, then:
as §1

In data set [3] the test system is trypomastigote form of T. cruzi. The arrangement: method as in Ambrozin et al. The conditions noted are these: ref Ambrozin et al.; cited from earlier work.
Data set [4] relates to T. cruzi (Trypomastigote). The arrangement: method as in Grecco et al. [9],[10],[11],[12]. The note with it: ref Grecco et al. [9],[10],[11],[12]; cited from earlier work.
Data set [5] has as its system T. cruzi (Trypomastigote). Details: method as in Ganapaty et al. [8]. The conditions noted are these: ref Ganapaty et al. [8]; cited from earlier work.

Structures are written as SMILES. Like-named read-outs stand apart in the source and are kept apart here.

A word on the IC50: it is the concentration that inhibits the measured activity by half. Broadly, the CC50 is the concentration giving 50% cytotoxicity. Turning to `COc1ccc2c(c1)C(=O)[C@@H](C(=O)c1ccccc1)[C@H](c1ccccc1Cl)O2` (relative stereo) [Compound 2s, trans-3-benzoyl-2-(2-chlorophenyl)-6-methoxychroman-4-one], the IC50 in data set [1] was found to be 18.4 µM. Besides, the CC50 at 96 h in data set [2] came to 102 µM. The “SI (selectivity index calculated from CC50/IC50)” value in the data set on L929 cells is 5.5.
The matching figures for `O=C(c1ccccc1)[C@@H]1C(=O)c2cc(Cl)ccc2O[C@H]1c1ccccc1` (relative stereo) [Compound 2t, trans-3-benzoyl-6-chloro-2-phenylchroman-4-one]: 23.2 µM, 221 µM and 9.5.
`COc1ccc([C@@H]2Oc3ccc(Cl)cc3C(=O)[C@H]2C(=O)c2ccccc2)cc1` (relative stereo) [Compound 2u, trans-3-benzoyl-6-chloro-2-(4-methoxyphenyl)chroman-4-one]: the half-inhibitory concentration (IC50) in data set [1] worked out at 59.2 µM. The CC50 at 96 h in data set [2] was 205 µM. For the same compound, the “SI (selectivity index calculated from CC50/IC50)” value with L929 cells is 3.5.
On to `O=C(c1ccccc1)[C@@H]1C(=O)c2ccccc2O[C@H]1c1ccco1` (relative stereo) [Compound 2y, trans-3-benzoyl-2-(furan-2-yl)chroman-4-one], for which the IC50 in data set [1] is 114 µM. Further, the CC50 at 96 h in data set [2] came to 503 µM. For the same compound, the “SI (selectivity index calculated from CC50/IC50)” value in the data set on L929 cells is reported as 4.4.
In the same order, the values of `O=C(c1ccccc1)[C@@H]1C(=O)c2ccccc2O[C@H]1c1ccc([N+](=O)[O-])o1` (relative stereo) [Compound 2z, trans-3-benzoyl-2-(5-nitrofuran-2-yl)chroman-4-one] are 2.6 µM, 27.5 µM and 10.6.
For `COc1ccc2c(=O)cc(-c3ccccc3)oc2c1` [7-Methoxyflavone], the IC50 in data set [3] was 3120 µM.
As for `CCC1(C(=O)c2ccccc2)C(=O)c2ccccc2OC1c1ccccc1` (stereo not drawn) [Compound 4, 3-Benzoyl-3-ethyl-2-phenylchroman-4-one], in data set [1], the IC50 was found to be 13.2 µM. In addition, the CC50 at 96 h in data set [2] was found to be 449 µM. In the data set on L929 cells, the “SI (selectivity index calculated from CC50/IC50)” value is 34.03.
The matching figures for `c1ccc(-c2n[nH]c3c2C(c2ccccc2)Oc2ccccc2-3)cc1` (stereo not drawn) [Compound 5, 3,4-diphenyl-1,4-dihydrochromeno[4,3-c]pyrazole]: 8.3 µM, 38.6 µM and 4.6.
On to `O=c1cc(-c2ccccc2)oc2ccccc12` [Flavone], for which, in data set [3], the IC50 is 9520 µM.
For `COc1c(O)cc2oc(-c3ccc(O)cc3)cc(=O)c2c1O` [Hispidulin], the concentration for half-maximal inhibition (IC50) in data set [4] is 268 µM.
For `COc1ccc(-c2cc(=O)c3c(O)c(OC)c(O)cc3o2)cc1` [Pectolinaringenin], in data set [4], the half-maximal inhibitory concentration (IC50) is 164 µM.
As to `COc1cc2c(cc1O)OC[C@H](c1cc3c(cc1O)OCO3)[C@H]2O` [Pumilanol], the IC50 in data set [5] is 10.1 µM.
Turning to `COc1cc(O)c2c(c1)O[C@H](c1ccc(O)cc1)CC2=O` [Sakuranetin], in data set [4], the IC50 was 70.5 µM.
